How the values were obtained:
[1] = tested on: cAMP; experiment: PGE2-induced cAMP increases in 10-day old rat cortical neurons; assay type: cell-based; set-up: effect on basal cAMP levels: unit of the concentration uncertain; conditions: for effect on basal cAMP levels: no PGE2, cortical neurons; for effect on PGE2-stimulated cAMP levels: cortical neurons
Protocol: FIG. 5. Effect of Cannabinoids on Prostaglandin E2-Induced cAMP Increases in 10-Day Old Rat Cortical Neurons.
Levels of cyclic AMP are measured with an [8-^3H]-cAMP assay kit (Amersham TRK 432) in astrocytes grown on 35 mm dishes. In brief, after aspirating the medium and rinsing twice with 1 ml ice cold PBS, the cells are scraped in 0.8 mL ice cold ethanol and sonicated. The cell suspension is incubated for […] at room temperature, centrifuged and the supernatant is dried in a rotary evaporator. After resuspension in 120 μL Tris/EDTA buffer, two duplicate samples of 50 μl each are mixed with the binding protein, [8-^3H] adenosine 3′,5′-cyclic phosphate tracer and incubated at 2-4° C. for 2 h. A charcoal suspension (100 μL) is added to the samples before centrifugation and 200 μL of the supernatant is removed for scintillation counting. The amount of cyclic AMP (pmol/mg protein) is estimated by comparing to known standards, and normalized to the amounts of whole cell protein as determined by the bicinchoninic acid assay (Sigma).
Referring now to FIG. 5, cell cultures of 10-day old cortical neurons are used to assess the affect of anandamide (50 M), methanandamide (10 M), and 2-AG (50 M) on PGE2-stimulated cAMP levels. PGE2 (50 M) is found to elevate cAMP levels about 1.6-fold over basal (control).

[2] = tested on: APP holoprotein; experiment: Cell-associated APP holoprotein in cultured astrocytes (Western blot); assay type: cell-based, rat; set-up: basal APPh levels (compound by itself): unit of the concentration uncertain
Protocol: (§1) Astrocytes are isolated from cortices from postnatal rats by methods standard in the art. In brief, dissected cortices are dissociated by trypsinization and trituration through a flame-polished Pasteur pipette. Cells are plated onto poly-L-lysine coated 35- or 100 mm culture dishes at densities of about 10-25 cells/mm^2. The initial culture media, minimal essential medium (MEM, Gibco) containing 10% horse serum (BioWhittaker), are aspirated after 2-5 h after plating to remove unattached cells and debris, and replaced with MEM containing 7.5% fetal bovine serum (FBS, BioWhittaker). Half the media is replaced with MEM/7.5% FBS twice weekly. Cells are kept at 37° C. in a humidified 5% CO2/95% air incubator. Media are changed twice weekly. […] Pharmacological manipulations are performed in serum-free media on 7-14 DIV confluent astrocytes.
To detect cell-associated proteins (APP or GFAP), astrocytes from 35 mm dishes are scraped into lysis buffer (60 mm Tris/HCl, 4% SDS, 20% glycerol, 1 mm dithiothreitol), ultrasonicated and boiled for […]. The total amount of cell protein per dish, estimated using the bicinchoninic acid assay, is not altered by pharmacological treatments. Bromphenol blue (0.1%) is added to each sample and equal amounts of protein ([…]) are loaded on 10% SDS polyacrylamide gels.
The amount of media or cell protein loaded for sodium dodecyl sulfate-polyacrylamide gel electrophoresis (10-20% SDS PAGE; Bio-Rad) is normalized for the amount of protein per sample. Proteins (equivalent to 100 μg cell protein/lane) are separated by electrophoresis, electroblotted onto polyvinylidene difluoride membranes (Immobilon-P, Millipore) and blocked in Tris-buffered saline with 0.15% Tween 20 (TEST) containing 5% powdered milk for 30 min. After 2×10 mm rinses in TBST, the membranes are incubated in TEST containing an appropriate antibody. Monoclonal antibodies 22C11 and GFAP (both from Boehringer Mannheim) are used to detect the N-terminus of APP and glial fibrillary acidic protein respectively; antisera R37 and R98 (gifts of Dr. F. Kametani, Tokyo Institute of Psychiatry) are used to detected the C-terminus and KPI motifs of APP respectively; antiserum C8 (gift of Dr. D. Selkoe, Women's Hospital, Harvard Medical School, Cambridge, Mass.) is used to detect the C-terminus of APP.
After an overnight incubation, membranes are rinsed in TBST then treated for 1 h with a peroxidase-linked secondary antibody. After several rinses in TEST, protein bands are visualized on Kodak X-AR films by an enhanced chemiluminescence method (Amersham). Optical densities of the protein bands are quantitated by laser scanning densitometry (LICE, Bromma, Sweden), and normalized to the densities of those bands generated under control conditions.
Measurements of cellular and secreted proteins, or of mRNA in treatment groups are normalized against those of control groups which are prepared in parallel and loaded onto the same blot. Analysis of variance (ANOVA) and t-tests are used to evaluate differences between groups (significance level, p=0.05), using drug treatments as the independent variable.

[3] = tested on: soluble APP (APPs); experiment: Secreted soluble APP in astrocyte culture media (Western blot); assay type: cell-based, rat; conditions: astrocytes
Protocol: as §1
To detect secreted APP, culture media is collected after drug treatments and phenylmethylsulfonyl fluoride is added to a final concentration of 2 mM. The media samples are then applied to Sephadex PD-b desalting columns (Pharmacia) and eluted with distilled water. […]
The amount of media or cell protein loaded for sodium dodecyl sulfate-polyacrylamide gel electrophoresis (10-20% SDS PAGE; Bio-Rad) is normalized for the amount of protein per sample. […] Monoclonal antibodies 22C11 and GFAP (both from Boehringer Mannheim) are used to detect the N-terminus of APP and glial fibrillary acidic protein respectively; antisera R37 and R98 (gifts of Dr. F. Kametani, Tokyo Institute of Psychiatry) are used to detected the C-terminus and KPI motifs of APP respectively; antiserum C8 (gift of Dr. D. Selkoe, Women's Hospital, Harvard Medical School, Cambridge, Mass.) is used to detect the C-terminus of APP.
After an overnight incubation, membranes are rinsed in TBST then treated for 1 h with a peroxidase-linked secondary antibody. […] Optical densities of the protein bands are quantitated by laser scanning densitometry (LICE, Bromma, Sweden), and normalized to the densities of those bands generated under control conditions. […]

[4] = tested on: APP mRNA; experiment: APP mRNA levels in cultured astrocytes (Northern blot); assay type: cell-based, rat; conditions: 1, 10 or 100 μM, 24 h
Protocol: as §1
Total RNA from astrocytes grown on 100 mm dishes is extracted by the acid guanidium thiocyanate-phenol chloroform method. […] The levels of APP mRNA are normalized to the amounts of G3PDH mRNA and expressed as a ratio to the levels of untreated, control cells.
Confluent monolayers of astrocytes prepared according to Example 8.1 are treated with serum-free media containing 50, 100, or 250 μM 8Br-cAMP for varying durations (1 h, 6 h, 12 h, or 24 h). Levels of cAMP in astrocytes are measured with a [8-^3H]-cAMP assay kit (Amersham TRK 432).

[5] = tested on: Abeta; experiment: Total Abeta media concentration in CHO cells transfected with human APP gene construct; assay type: cell-based, Chinese Hamster; set-up: unit of the concentration uncertain
From the text: FIG. 3. Effect of Varying Concentrations of Resveratrol on Total Abeta Media Concentration in CHO Cells Transfected with Human APP Gene Construct at Four Hours.

CCCCC/C=C\C/C=C\C/C=C\C/C=C\CCCC(=O)N[C@H](C)CO [Methanandamide, methanandamide]
effect on basal cAMP levels ([1]; 10 (unit uncertain)): no effect on basal levels
effect on PGE2-stimulated cAMP levels ([1]; 10 M with PGE2 50 M): inhibit the PGE2-induced increase in cAMP levels
effect on PGE2-stimulated APPh levels ([2]; 10 M methanandamide compared with 50 μM anandamide, cultured astrocytes): more efficacious than anandamide

CCCCC[C@H](O)/C=C/[C@H]1[C@H](O)CC(=O)[C@@H]1C/C=C\CCCC(=O)O [PGE2, prostaglandin E2]
cAMP levels over basal (control) ([1]; PGE2 50 M alone, 10-day old cortical neurons): about 1.6 fold
increase in APPh levels compared to controls ([2]; 50 μM prostaglandin E2 alone, cultured astrocytes, two experiments): ~75%
increase in APPh levels ([2]; PGE2 alone, cultured astrocytes (FIG. 4)): three-fold
APP secreted in the media (110-130 kD) ([3]; 1, 10 or 100 μM, 24 h): also increased
amounts of astrocytic APP mRNA (4.5 kb) relative to untreated cells [4]: significantly increases

Cc1c(C(=O)c2cccc3ccccc23)c2cccc3c2n1[C@H](CN1CCOCC1)CO3 [WIN55212-2]
effect on APPh levels in the absence of PGE2 ([2]; 100 µM, cultured astrocytes): no statistically significant effect
increase in APPh levels with PGE2 stimulation ([2]; WIN55212-2 100 M added to PGE2, cultured astrocytes): limited to two-fold

CCCCC/C=C\C/C=C\C/C=C\C/C=C\CCCC(=O)NCCO [anandamide]
effect on PGE2-stimulated cAMP levels ([1]; 50 µM with PGE2 50 M): suppress the PGE2-induced stimulation
effect on basal cAMP levels ([1]; 50 (unit uncertain)): no effect on basal levels
increase in APPh levels over control in presence of PGE2 ([2]; 50 μM anandamide with 50 μM prostaglandin E2, cultured astrocytes): about 55%
basal APPh levels (compound by itself) ([2]; 50 µM, without PGE2, cultured astrocytes): reduce APPh levels below control values

Oc1ccc(C=Cc2cc(O)cc(O)c2)cc1 [resveratrol]
decrease in APP holoprotein ([2]; 10 μM (so in the source) and intermediate concentrations, one hour, astrocytes, p<0.05): significant decrease
levels of cellular amyloidogenic APP holoprotein ([2]; 10 μM and higher, one hour, astrocytes, p<0.05): decreased to about half
stimulation of APPs ([3]; 10 nM and intermediate concentrations, one hour): Significant stimulation
formation of soluble APP (APPs) over control ([3]; 10 μM and higher, one hour, average of four experiments, p<0.05): about two-fold over control
Abeta levels in the media ([5]; 100 (unit uncertain), four-hour treatment): decrease to about half
Abeta levels in the media ([5]; lower concentrations (0.1, 1.0, 10 (unit uncertain)), four hours): not to differ from control

Source: US20020173549A1, “Compositions and methods for treatment of mild cognitive impairment” (priority 2000, published 2002)
